# Assay: Compound was tested for inhibition against UDP-N-acetylmuramoyl-L-alanyl-D-glutamate synthetase
# Parameters: species or system Escherichia coli
row,SMILES,IC50 [nM]
1,CC(NC(=O)CCCCCOP(=O)(O)O)P(=O)(O)CC(CCC(=O)O)C(=O)O (configuration not stated),29000
2,CC(=O)NC1C(O)OC(CO)C(O)C1O[C@H](C)C(=O)N[C@@H](C)P(=O)(O)CC(CCC(=O)O)C(=O)O (some centres not stated),782000

# Continued, values first:
row,IC50 [nM],SMILES
1,455,CC(=O)NC1C(OP(=O)(O)O)OC2COC(c3ccccc3)OC2C1O[C@H](C)C(=O)N[C@@H](C)P(=O)(O)CC(CCC(=O)O)C(=O)O (some centres not stated)
2,20,CC(=O)NC1C(OP(=O)(O)O)OC(CO)C(O)C1O[C@H](C)C(=O)N[C@@H](C)P(=O)(O)CC(CCC(=O)O)C(=O)O (some centres not stated)
3,< 1,CC(=O)NC1C(OP(=O)(O)OP(=O)(O)OC[C@H]2OC(n3ccc(=O)[nH]c3=O)[C@H](O)[C@@H]2O)OC(CO)C(O)C1O[C@H](C)C(=O)N[C@@H](C)P(=O)(O)CC(CCC(=O)O)C(=O)O (some centres not stated)
4,680,CC(NC(=O)CCCCCOP(=O)(O)OP(=O)(O)OC[C@H]1O[C@@H](n2ccc(=O)[nH]c2=O)[C@H](O)[C@@H]1O)P(=O)(O)CC(CCC(=O)O)C(=O)O (some centres not stated)

# Assay: Compound was tested for inhibition against UDP-N-acetylmuramoyl-L-alanyl-D-glutamate synthetase isolated from Escherichia coli
row,IC50 [nM],SMILES
1,4,CC(=O)NC1C(OP(=O)(O)OP(=O)(O)OC[C@H]2OC(n3cc(I)c(=O)[nH]c3=O)[C@H](O)[C@@H]2O)OC(CO)C(O)C1O[C@H](C)C(=O)N[C@@H](C)P(=O)(O)CC(CCC(=O)O)C(=O)O (some centres not stated) [17]

# — ChEMBL document CHEMBL1130859, “Inhibitors of the bacterial cell wall biosynthesis enzyme MurD” (Bioorg Med Chem Lett, 1998)
